Measured values from EP1658776A1, “Method for producing live food water organisms in the presence of an antibacterial” (priority 2004, dated 2006).

Legend:
oyster embryos = settings: natural seawater; cited from earlier work
[1] = test system: marine heterotrophic bacterial population; test: Total bacterial count on Marine agar in hatching medium (Example 1); format: cell-based; settings: 24h incubation
Method: 1000 g commercially available dry cysts from Great Salt Lake (GSL-strain) were sprayed with 20 ml solution to which 2.43g or 2.02g AgNO3 is added and another 1000 g cysts were sprayed with 20 ml to which 14.20g or 11.81g thiosulphate (Na2S2O3.5(H2O)) is added (in a ratio of 4 mol thiosulphate to 1 mol AgNO3) to obtain respectively 1.50 or 1.25 mg Ag/l in the hatching medium, after incubation of 2g treated cysts therein. The cysts were gently mixed for 15-30 minutes while spraying. Both fractions were mixed together in a ratio of (1:1). The cysts were vacuum packed and stored at different temperatures (4°C, 20°C and 30°C). Cysts from the same batch were kept as a control. After 4 weeks they were incubated at 2g (treated) cysts /l, following standard procedures, i.e.: salinity of 25 g/I, temperature of 30°C. Continuous illumination and air bubbling was provided. After 24 hours of incubation, samples of the hatching medium were taken for determination of the total count on Marine agar (MA) and Vibrio sp. on TCBS (specific growth medium for Vibrio sp.). The hatching percentage (percentage of cysts that hatch on the total of full cysts) of the cysts was calculated. Tabel 1: Hatching percentage (HP) of cysts, number of colony forming units (cfu) per ml of hatching medium on MA and on TCBS after 24h incubation of Artemia cysts of control cysts and cysts with different amounts of AgNO3 (expressed as mg Ag/l hatching medium). Each value is the average of three counts.

Vibrio sp. = test: Vibrio count on TCBS in enrichment medium (Example 5); format: cell-based; settings: after 24 hours enrichment; compared to the non treated culture medium
Method: Artemia nauplii Instar I were harvested from the hatching tank, rinsed and incubated in cylindrical conical tanks with 90L water with a salinity of 35 g/l and a temperature of 28°C. The pH was controlled at 7.5. Stocking density of the nauplii was 300 nauplii / ml. The enrichment product 'Easy DHA Selco' which is a commercially available Seleco™-type enrichment product was added at the start of the enrichment at 600 mg/l. The dose of the silver (silver thiosulphate) in three of the six enrichment tanks was 1.5 mg Ag /l. In the three other tanks, Ag was not added. Samples of Artemia nauplii to analyse the levels of HUFA were taken at the end of the enrichment, thus 24 hours after adding the enrichment diets. At the same time, samples of the enrichment medium were taken for determination of Vibrio sp. on TCBS. Table 3: Highly unsaturated fatty acid levels (mg/g DW) of Artemia nauplli Instar II and bacterial concentrations (cfu/ml) on marine agar and TCBS of the enrichment medium after 24 hours enrichment with and without silver.

Q: With `O=[N+]([O-])[O-].[Ag+]` [Ag, silver nitrate] as the compound, how does the “toxicity levels (EC50)” value (oyster embryos) read?
A: 0.022 mg Ag/l

Q: What about the “MA (cfu/ml)” value ([1]; 1.25 mg/l Ag (AgNO3 + thiosulphate on cysts), storage 4°C) of the same compound?
A: 2.69 x 10^7 cfu/ml

Q: And the “MA (cfu/ml)” value ([1]; 1.25 mg/l Ag (AgNO3 + thiosulphate on cysts), storage 20°C)?
A: 1.29 x 10^7 cfu/ml

Q: And the “MA (cfu/ml)” value ([1]; 1.25 mg/l Ag (AgNO3 + thiosulphate on cysts), storage 30°C)?
A: 3.17 x 10^7 cfu/ml

Q: What about the “MA (cfu/ml)” value ([1]; 1.50 mg/l Ag (AgNO3 + thiosulphate on cysts), storage 4°C) of the same compound?
A: 1.20 x 10^7 cfu/ml

Q: And the “MA (cfu/ml)” value ([1]; 1.50 mg/l Ag (AgNO3 + thiosulphate on cysts), storage 20°C)?
A: 8.07 x 10^6 cfu/ml

Q: What about the “MA (cfu/ml)” value ([1]; 1.50 mg/l Ag (AgNO3 + thiosulphate on cysts), storage 30°C) of the same compound?
A: 6.55 x 10^6 cfu/ml

Q: What about the “Vibrio count on TCBS” value (Vibrio sp.) of the same compound?
A: significantly less
